Measured values: BindingDB's records for doi:10.1021/jm960510x (University of Camerino, 1996)

Molecular target: Alpha-1B adrenergic receptor (Mesocricetus auratus) (UniProt P18841)
Experiment: Compound was tested for binding affinity against cloned Alpha-1B adrenergic receptor from hamster smooth muscle using radioligand ([3H]prazosin) binding assay

Alpha-1B adrenergic receptor (Mesocricetus auratus), sequence (P18841 whole entry, looked up): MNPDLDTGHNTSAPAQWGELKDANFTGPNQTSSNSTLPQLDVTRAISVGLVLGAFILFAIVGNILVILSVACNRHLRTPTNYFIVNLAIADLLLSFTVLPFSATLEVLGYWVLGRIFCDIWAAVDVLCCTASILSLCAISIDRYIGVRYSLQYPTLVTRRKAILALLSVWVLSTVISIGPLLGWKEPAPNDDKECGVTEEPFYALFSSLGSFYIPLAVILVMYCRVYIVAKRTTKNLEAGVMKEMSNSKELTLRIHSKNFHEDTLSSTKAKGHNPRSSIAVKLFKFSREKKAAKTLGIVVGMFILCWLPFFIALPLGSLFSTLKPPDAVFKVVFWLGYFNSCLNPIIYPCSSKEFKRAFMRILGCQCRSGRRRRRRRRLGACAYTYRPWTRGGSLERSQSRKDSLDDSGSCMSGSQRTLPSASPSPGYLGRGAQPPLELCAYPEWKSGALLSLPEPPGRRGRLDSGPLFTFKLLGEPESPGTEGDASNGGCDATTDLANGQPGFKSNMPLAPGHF

Row | Ki | SMILES
1 | 0.692 nM | COc1cc2nc(N3CCN(C(=O)c4ccco4)[C@@H]4CCCC[C@@H]43)nc(N)c2cc1OC
2 | 0.589 nM | COc1cc2nc(N3CCN(C(=O)c4ccco4)C4CCCCC43)nc(N)c2cc1OC (stereo not drawn) [(Cyclazosin)[4-(4-Amino-6,7-dimethoxy-quinazolin-2-yl)-octahydro-quinoxalin-1-yl]-furan-2-yl-methanone]
3 | 0.309 nM | COc1cc2nc(N3CCN(C(=O)c4ccco4)[C@H]4CCCC[C@H]43)nc(N)c2cc1OC [CYCLAZOSIN]
